From ChEMBL document CHEMBL1157998, “Koninginin G, a new metabolite from trichoderma aureoviride” (1999) come the findings set out here.

Molecules are shown by their SMILES.

The subject of the assay is Triticum aestivum. Kind of assay: Growth inhibition of etiolated wheat coleoptiles at 1000 uM relative to control. To be noted: read-out: GI. The format is functional.

With `CCCCCc1cccc(=O)o1`, the inhibition of growth at 1000 µM was found to be 100%.
On to `CCCCCC[C@H](O)[C@@H]1CC[C@@H]2[C@H](O)CC[C@H](O)[C@@]2(O)O1` [KONINGININ G], for which the inhibition of growth at 1000 µM came out at 56%.
